Key:
[1] = Sulcotrione photoprotection test (Suntest irradiation, HPLC); format: physicochemical
Experimental: The pesticide used is sulcotrione. It was used in its Mikado commercial formulation. Sulcotrione degrades when irradiated by sunlight. The speed of the photodegradation depends on the environment of the molecule. To be representative of actual usage conditions of the pesticide, the rate of sulcotrione photodegradation is measured with the latter being dry, deposited in crystallizing dishes where the bottom is covered by a film of paraffin wax simulating the thin layer of epicuticular wax covering the surface of plants.
The formulated sulcotrione is deposited alone or in the presence of the compositions, 1 ml per crystallizing dish. The concentration of sulcotrione is fixed at 8 mg/l (100 g/ha) and that of the extracts is adjusted so that the absorbance of the compositions at 300 nm is equal to 4 for a 1 mm path length. The pH of the two compositions is normalized to 4.5 by the addition of sodium hydroxide. The crystallizing dishes are then inserted into a Suntest irradiator delivering a radiation similar in photon distribution and intensity to sunlight when the sun is at zenith in temperate regions, then removed after 3 h and 6 h of irradiation. The crystallizing dishes are rinsed with 2 ml ultrapure water and these solutions are analyzed by HPLC to determine their sulcotrione content.

[2] = system: Phytophthora parasitica var. nicotianae (Ppn) isolate 329; experiment: Curative treatment of tobacco leaf discs against a pathogen: surface area of region of infection; format: in vivo; settings: 50 μl composition (1% extract), 100 μl zoospore suspension, three days after the infiltrations
Experimental: Identical compositions are used, as well as leaves originating from the same tobacco plants as in Example 2. Two discs ([…]) are cut from a single leaf and then placed in a Petri dish containing a layer of 2% agarose gel.
The pathogen selected for the study is Phytophthora parasitica var. nicotianae (Ppn) isolate 329. The Ppn is grown on Malt Agar at 24° C. For the production of zoospores, the Ppn mycelium is grown for a week in V8 liquid medium at 24° C. under continuous light conditions, macerated, and then incubated for four days in water containing 2% agar. The zoospores are released by means of thermal shock consisting of two incubations, a first at 4° C. for 20 min, a second at 37° C. for 30 min after addition of 10 ml water. A zoospore suspension in water (1 zoospore per microliter) is prepared before being inoculated.
The compositions containing the extracts (50 μl) are infiltrated and the zoospore suspensions (100 μl) are inoculated into two separate regions, 1 cm apart, of the tobacco leaf parenchyma. Assays in which the compositions are replaced with salicylic acid (positive control) or ultrapure water (negative control) are performed. Three days after the infiltrations, the surface area of the region of infection is measured. The measurements are made using the Optima and Photoshop software for Windows.

| Structure (SMILES) | sulcotrione disappearance after 3 hours of irradiation ([1]; Suntest, 3 h) | sulcotrione disappearance (loss) after 6 hours of irradiation ([1]; Suntest, 6 h) | Sulcotrione content after 3 h irradiation ([1]; sulcotrione 8 mg/l, dry deposit on paraffin wax film, Suntest, 3 h) | Sulcotrione content after 6 h irradiation ([1]; sulcotrione 8 mg/l, dry deposit on paraffin wax film, Suntest, 6 h) | Initial sulcotrione content ([1]; sulcotrione 8 mg/l, dry deposit on paraffin wax film, before irradiation) | Surface area of region of infection [2] |
| --- | --- | --- | --- | --- | --- | --- |
| CS(=O)(=O)c1ccc(C(=O)C2C(=O)CCCC2=O)c(Cl)c1 [Sulcotrione alone, sulcotrione] | 65% | about 75% | 135 000 U.A. | 91 000 U.A. | 390 000 U.A. | – |
| O=C(O)c1ccccc1O [Salicylic acid, salicylic acid] | – | – | – | – | – | 10.9 ± 2.8 cm^2 |

Reference: patent publication US11213033B2, “Method for reusing leaves from arborescent woody plants, for the phytopharmaceutical industry” (CENTRE NATIONAL DE LA RECHERCHE SCIENTIFIQUE—CNRS, priority 2014, dated 2022)
